Measured values as given in ChEMBL document CHEMBL5126645, “Cancer-Cell-Selective Targeting by Arylcyclopropylamine-Vorinostat Conjugates” (ACS Med Chem Lett, 2022).
Active and inactive are the calls of the source. The calls are words filed in the database; no cut-off is given here.

Key:
[1] = target: Histone deacetylase 1 (Homo sapiens) (UniProt Q13547); experiment: Inhibition of HDAC1 in human NCI-H526 cells assessed as increase in H3K4 methylation at 16 uM measured after 24 to 72 hrs by Western blot analysis; assay type: cell-based; details: time 24-72 hrs
Histone deacetylase 1 (Homo sapiens), sequence (Q13547 whole entry): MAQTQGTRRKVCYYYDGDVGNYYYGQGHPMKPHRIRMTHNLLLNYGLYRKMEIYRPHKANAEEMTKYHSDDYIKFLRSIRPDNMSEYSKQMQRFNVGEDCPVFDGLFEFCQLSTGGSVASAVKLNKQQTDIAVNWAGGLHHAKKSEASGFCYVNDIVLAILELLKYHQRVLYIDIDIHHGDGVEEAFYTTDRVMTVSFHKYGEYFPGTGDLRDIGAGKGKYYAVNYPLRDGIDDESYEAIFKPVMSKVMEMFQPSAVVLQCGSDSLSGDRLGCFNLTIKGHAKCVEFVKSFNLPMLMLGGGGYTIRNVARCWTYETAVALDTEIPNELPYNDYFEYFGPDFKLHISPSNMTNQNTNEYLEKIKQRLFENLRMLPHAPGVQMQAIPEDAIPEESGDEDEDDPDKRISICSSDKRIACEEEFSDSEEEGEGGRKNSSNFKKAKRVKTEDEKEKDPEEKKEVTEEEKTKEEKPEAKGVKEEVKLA

[2] = target: Histone deacetylase 1 (Homo sapiens) (UniProt Q13547); experiment: Potency index, ratio of vorinostat IC50 to test compound IC50 for inhibition of HDAC1 human NCI-H526 cells measured after 24 to 72 hrs by Western blot analysis; assay type: cell-based; details: time 24-72 hrs
NCI-H526 = experiment: cells; assay type: functional; details: Homo sapiens, NCI-H526, 72 h; time 3 day
Description: Antiproliferative activity against human NCI-H526 cells assessed as inhibition of cell growth incubated for 3 days by alamar blue assay

in vitro [3] = details: human, HMEC cells versus NCI-H526 cells
Description: Selectivity index, ratio of IC50 for cytotoxicity against HMEC cells to GI50 for antiproliferative activity against human NCI-H526 cells

MDA-MB-231 [4] = experiment: Additive antiproliferative activity against human MDA-MB-231 cells assessed as inhibition of cell growth incubated for 3 days in presence of 4-(Chloromethyl)phenyl acetate by alamar blue assay; assay type: functional, cell-based; details: time 3.0 day
[5] = target: T1, Lysine-specific histone demethylase 1A (Homo sapiens, UniProt O60341)
Description: Inhibition of LSD1 (unknown origin) using H3K4me2 peptide as substrate preincubated for 15 mins followed by substrate addition and measured after 30 mins by fluorescence based analysis

in vitro [6] = details: human, HMEC cells versus MDA-MB-231 cells
Description: Selectivity index, ratio of IC50 for cytotoxicity against HMEC cells to GI50 for antiproliferative activity against human MDA-MB-231 cells

MDA-MB-231 [7] = experiment: Synergistic antiproliferative activity against human MDA-MB-231 cells assessed as inhibition of cell growth incubated for 3 days in presence of vorinostat by alamar blue assay; assay type: functional, cell-based; details: time 3.0 day
[8] = target: Histone deacetylase 1 (Homo sapiens) (UniProt Q13547); experiment: Inhibition of HDAC1 in human NCI-H526 cells assessed as increase in H3K9 acetylation at 16 uM measured after 24 to 72 hrs by Western blot analysis; assay type: cell-based; details: time 24-72 hrs
in vitro [9] = details: human, HMEC cells
Description: Cytotoxicity against HMEC cells assessed as inhibition of cell growth incubated for 3 days by alamar blue assay

MDA-MB-231 [10] = experiment: Synergistic antiproliferative activity against human MDA-MB-231 cells assessed as inhibition of cell growth incubated for 3 days in presence of LSD1 inhibitor, NCD38 by alamar blue assay; assay type: functional, cell-based; details: time 3.0 day
MDA-MB-231 [11] = experiment: cells; assay type: functional; details: Homo sapiens, MDA-MB-231, 72 h; time 3 day
Description: Antiproliferative activity against human MDA-MB-231 cells assessed as inhibition of cell growth incubated for 3 days by alamar blue assay

[12] = Stability of compound in HEPES buffer at pH 7.4 at 100 uM incubated for 24 hrs by HPLC analysis; assay type: physicochemical; details: pH 7.4, 24 h
[13] = target: T1, Lysine-specific histone demethylase 1A; experiment: Potency index, ratio of phenylcyclopropylamine IC50 to test compound IC50 for inhibition of LSD1 (unknown origin) using H3K4me2 peptide as substrate preincubated for 15 mins followed by substrate addition and measured after 30 mins by fluorescence based analysis; details: time 45.0 min
[14] = Stability of compound in buffer at pH 7.4; assay type: physicochemical
[15] = target: T1, Lysine-specific histone demethylase 1A; experiment: Prodrug conversion assessed as LSD1 (unknown origin)-mediated vorinostat release incubated for 24 hrs by HPLC analysis; assay type: ADME

Structure (SMILES)	GI50 (NCI-H526) [nM]	IC50 [5] [nM]	selectivity ratio (in vitro [6])	IC50 at 3 days (in vitro [9]) [nM]	GI50 (MDA-MB-231 [11]) [nM]	other results
CNC(=O)c1cccc(-c2ccc(C3CC3N(C)CCN(C)C(=O)Oc3ccc(CONC(=O)CCCCCCC(=O)Nc4ccccc4)cc3)cc2)c1 (racemic)	1000	126	> 22.3	> 100000	4490	inhibition [1]: Active; Ratio IC50 [2]: 40; selectivity ratio (in vitro [3]): > 100; Activity (MDA-MB-231 [4]): Active; Activity (MDA-MB-231 [7]): Active; inhibition [8]: Active; Activity (MDA-MB-231 [10]): Active
CNC(=O)c1cccc(-c2ccc([C@H]3C[C@@H]3N(C)CCN(C)C(=O)Oc3ccc(CONC(=O)CCCCCCC(=O)Nc4ccccc4)cc3)cc2)c1		457				
CN(CCN(C)C1CC1c1ccccc1)C(=O)ONC(=O)CCCCCCC(=O)Nc1ccccc1 (centres undefined)						Stability [12]: Unstable
CNC(=O)c1cccc(-c2ccc([C@@H]3C[C@H]3N(C)CCN(C)C(=O)Oc3ccc(CONC(=O)CCCCCCC(=O)Nc4ccccc4)cc3)cc2)c1		444				
CN(CCN(C)C1CC1c1ccccc1)C(=O)Oc1ccc(CONC(=O)CCCCCCC(=O)Nc2ccccc2)cc1 (centres undefined)		1290	> 2.92	> 100000	34300	Ratio IC50 [13]: 19; Stability [14]: Stable; Drug metabolism [15]: Metabolite_Detected
CC(=O)Oc1ccc(CCl)cc1	2020				2050	
